# Assay results: paper PMC5365654, “Cyclic Boronates Inhibit All Classes of β-Lactamases” (Antimicrobial Agents and Chemotherapy, 2017)
# Like-named read-outs stand apart in the source and are kept apart here.
# Legend:
# Assay type in all cases: cell-based
# P. stuartii PS71 = assay: Broth microtiter dilution MIC, PS71; details: Providencia stuartii, TEM-1 (A), SHV-5 (A), VEB-1 (A), VIM-1 (B), read-out: MIC (mg/liter) for β-lactam
# Procedure: (§1) The in vitro activity of cyclic boronate 2 was assessed using nine clinical isolates carrying multiple β-lactamases (Table 3). The isolates selected included Enterobacteriaceae (E. coli ST 131, Klebsiella pneumoniae ST 258, and Providencia stuartii) producing class A ESBLs (CTX-M-15, CTX-M-27, SHV-5, and VEB-1), serine carbapenemase (KPC-2) and metallo-carbapenemases (VIM-1 and VIM-2), plasmid-mediated AmpC (CMY-2), and/or carbapenem-hydrolyzing OXA-48-like oxacillinases (OXA-181 and OXA-232) in various combinations. The activity against carbapenemase-producing strains of Pseudomonas aeruginosa (VIM-2) and Acinetobacter baumannii (OXA-23) was also investigated. All isolates have previously undergone extensive phenotypic and genotypic characterization ([60]).
# (§2) MICs were determined using commercial Sensititre GN4F panels (Thermo Scientific, UK; lot B55051) and Mueller-Hinton II cation-adjusted broth (Oxoid, UK), with and without the addition of cyclic boronate 2 at a fixed concentration of 10 μg/ml. Plates were incubated at 37°C for 18 h and MICs read by eye following the addition of alamarBlue reagent (Trek Diagnostics).
# K. pneumoniae (KP41) = system: K. pneumoniae (KP41)
# Procedure: (§3) Combination discs (Oxoid) were prepared with a fixed ratio of 2:1 between the β-lactam (μg) and cyclic boronate 2. Zones of inhibition around combined and unsupplemented discs were compared following overnight incubation on MH II plates.
# K. pneumoniae (KP15) = system: K. pneumoniae (KP15)
# Procedure: as §3
# K. pneumoniae (KP58) = system: K. pneumoniae (KP58)
# Procedure: as §3
# A. baumannii AB14 = assay: Broth microtiter dilution MIC, AB14; details: Acinetobacter baumannii, OXA-23 (D), OXA-51 (D), read-out: MIC (mg/liter) for β-lactam
# Procedure: as §1, §2
# K. pneumoniae KP41 = assay: Broth microtiter dilution MIC, KP41; details: Klebsiella pneumoniae, TEM-1, SHV-1, SHV-5, SHV-11, CTX-M-15 (A), OXA-232 (D), read-out: MIC (mg/liter) for β-lactam
# Procedure: as §1, §2
# E. coli EC86 = assay: Broth microtiter dilution MIC, EC86; details: E. coli EC86, CTX-M-15 (A), CMY-4 (C), OXA-181 (D)
# Procedure: as §1, §2
# [1] = system: P. aeruginosa PA12, ST 111; assay: Broth microtiter dilution MIC, PA12; details: Pseudomonas aeruginosa, VIM-2 (B), read-out: MIC (mg/liter) for β-lactam
# Procedure: as §1, §2
# K. pneumoniae KP58 = assay: Broth microtiter dilution MIC, KP58; details: Klebsiella pneumoniae, SHV-11 (A), VIM-4 (B), read-out: MIC (mg/liter) for β-lactam
# Procedure: as §1, §2
# E. coli EC114, ST 131 = assay: Broth microtiter dilution MIC, EC114; details: Escherichia coli, TEM-1 (A), CTX-M-15 (A), OXA-1 (D), read-out: MIC (mg/liter) for β-lactam
# Procedure: as §1, §2
# E. coli EC107, ST 131 = assay: Broth microtiter dilution MIC, EC107; details: Escherichia coli, CTX-M-15 (A), OXA-1 (D), read-out: MIC (mg/liter) for β-lactam
# Procedure: as §1, §2
# K. pneumoniae KP15 = assay: Broth microtiter dilution MIC, KP15; details: Klebsiella pneumoniae, TEM-1 (A), SHV-11 (A), KPC-2 (A), read-out: MIC (mg/liter) for β-lactam
# Procedure: as §1, §2
# E. coli EC113, ST 131 = assay: Broth microtiter dilution MIC, EC113; details: Escherichia coli, CTX-M-27 (A), read-out: MIC (mg/liter) for β-lactam
# Procedure: as §1, §2
# [2] = with cyclic boronate 2 (10 mg/liter) supplementation
# [3] = without cyclic boronate 2 supplementation
structure (smiles),measurement,setting,value
"CCN1CCN(C(=O)N[C@@H](C(=O)N[C@@H]2C(=O)N3[C@@H]2SC(C)(C)[C@@H]3C(=O)O)c2ccccc2)C(=O)C1=O [PIP, piperacillin]",MIC,P. stuartii PS71; [2],> 64 mg/L
same,MIC,P. stuartii PS71; [3],> 64 mg/L
same,Synergy When Combined with (2): Fixed 2:1 µg Ratio,K. pneumoniae (KP41),N
same,Synergy When Combined with (2): Fixed 2:1 µg Ratio,K. pneumoniae (KP15),Y
same,Synergy When Combined with (2): Fixed 2:1 µg Ratio,K. pneumoniae (KP58),Y
same,MIC,A. baumannii AB14; [2],> 64 mg/L
same,MIC,A. baumannii AB14; [3],> 64 mg/L
same,MIC,K. pneumoniae KP41; [2],> 64 mg/L
same,MIC,K. pneumoniae KP41; [3],> 64 mg/L
same,MIC (mg/liter) for β-lactam,E. coli EC86; [3],>64 mg/L
same,MIC,"E. coli EC86; Escherichia coli, with cyclic boronate 2 (10 mg/liter) supplementation, read-out: MIC (mg/liter) for β-lactam",> 64 mg/L
same,MIC,[1]; [2],64 mg/L
same,MIC,[1]; [3],> 64 mg/L
same,MIC,K. pneumoniae KP58; [2],> 64 mg/L
same,MIC,K. pneumoniae KP58; [3],> 64 mg/L
same,MIC,"E. coli EC114, ST 131; [2]",> 64 mg/L
same,MIC,"E. coli EC114, ST 131; [3]",> 64 mg/L
same,MIC,"E. coli EC107, ST 131; [2]",> 64 mg/L
same,MIC,"E. coli EC107, ST 131; [3]",> 64 mg/L
same,MIC,K. pneumoniae KP15; [2],> 64 mg/L
same,MIC,K. pneumoniae KP15; [3],> 64 mg/L
same,MIC,"E. coli EC113, ST 131; [2]",≤ 16 mg/L
same,MIC,"E. coli EC113, ST 131; [3]",> 64 mg/L
